Data: EP4644384A1 (Shanghai Lichun Biotech Co., Ltd., priority 2023, dated 2024)

Each molecule was assayed against T1, CYP11A1 (Homo sapiens, UniProt P05108) (assay: Pregnenolone synthesis inhibition in NCI-H295R cells (pregnenolone ELISA of culture supernatant)). Conditions: 24 hours incubation, pregnenolone in culture supernatant by ELISA.
T1 construct: host or cells: NCI-H295R human adrenocortical cancer cells
T1 sequence (P05108 40-521): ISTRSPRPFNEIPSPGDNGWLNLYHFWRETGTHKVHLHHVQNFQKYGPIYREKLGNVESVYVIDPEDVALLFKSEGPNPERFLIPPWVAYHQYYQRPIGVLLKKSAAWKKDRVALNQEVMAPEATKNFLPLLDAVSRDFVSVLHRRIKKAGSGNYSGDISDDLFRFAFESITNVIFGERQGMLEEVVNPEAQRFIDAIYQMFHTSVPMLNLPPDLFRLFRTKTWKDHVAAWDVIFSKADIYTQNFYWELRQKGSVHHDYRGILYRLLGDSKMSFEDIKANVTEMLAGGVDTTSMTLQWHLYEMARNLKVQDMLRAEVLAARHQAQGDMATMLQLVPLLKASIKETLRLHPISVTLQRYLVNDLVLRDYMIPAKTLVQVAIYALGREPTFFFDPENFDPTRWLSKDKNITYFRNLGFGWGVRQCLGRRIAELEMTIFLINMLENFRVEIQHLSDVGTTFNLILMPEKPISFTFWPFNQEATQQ
Format: cell-based
Text: Conversion of cholesterol into pregnenolone is a first rate-limiting step in the synthesis of all steroid hormones in vertebrates. This conversion reaction involves a two-step continuous monooxygenation reaction catalyzed by the unique cytochrome P450scc (CYP11A) to produce C22-hydroxycholesterol and C20,C22-dihydroxycholesterol in order, followed by CYP11A1-catalyzed breakage of a C20-C22 carbon-carbon single bond in C20,C22-dihydroxycholesterol to produce one molecule of pregnenolone and one molecule of 4-methylvaleraldehyde. Therefore, the inhibitory effect of a compound on CYP11A1 was identified by detecting the ability of the compound to inhibit pregnenolone synthesis.
The ability of different compounds to inhibit pregnenolone biosynthesis was determined by detecting the concentration of pregnenolone (Abnova pregnenolone ELISA kit, KA1912) using enzyme-linked immunosorbent assay (ELISA), so as to detect the ability of the compounds to inhibit CYP11A1. […] In order to determine the half-maximal inhibitory concentrations (IC50) of CYP11A1 inhibition by different compounds, the compounds were added during NCI-H295R cell culture, and after incubation, the concentration of pregnenolone in the culture supernatant was determined.
95 µl of NCI-H295R cells were taken and cultured overnight with a specialized cell culture medium (Procell, CM-0399) in a 96-well culture plate in a cell incubator at 37°C and 5% CO2. 5 µl/well of a DMSO (Sigma, D8418) solution of the compounds to be tested at different concentrations was then added, followed by continued incubation for 24 hours. The final concentrations of the compounds to be tested were 1000 nM, 333.33 nM, 111.11 nM, 37.04 nM, 12.35 nM, 4.12 nM, 1.37 nM, 0.46 nM, and 0 nM. After the incubation was complete, the cells were centrifuged, 80 µl/well of the cell culture supernatant was obtained and 1 : 8 diluted with the cell culture medium, and the concentration of pregnenolone therein was then determined by ELISA method. During ELISA detection, a pregnenolone standard was used to generate a standard curve. The experiment was carried out with replicate wells. The ELISA well plate had been coated with an anti-pregnenolone rabbit polyclonal antibody. In ELISA plate strips, 50 µl/well of the diluted culture supernatant or standard solution or reference substance was added, followed by 100 µl of a pregnenolone-HRP complex solution, and the plate was incubated for 1 hour at room temperature on a plate shaker (QILINBEIER, QB-9002) at 200 rpm. Then, the plate was washed three times with a cleaning solution, with 300 µl each time, and patted dry on absorbent paper. 150 µl of a TMB substrate was added. The plate was incubated on the plate shaker for 10-15 minutes at room temperature, and 50 µl of a stop solution was then added. The absorbance was measured at 450 nm by a microplate reader (PerkinElmer, 2105). The IC50 value was calculated by using GraphPad Prism software. [formula]

Row | SMILES | IC50 [nM]
1 | CS(=O)(=O)N1CCC(COc2ccc(CN3Cc4ccccc4C3)[nH]c2=O)CC1 [Compound 2, 6-(isoindolin-2-ylmethyl)-3-((1-(methylsulfonyl)piperidine-4-yl)methoxy)pyridin-2(1H)-one] | 222
2 | Cn1c(CN2Cc3ccc(F)cc3C2)ccc(OCC2CCN(S(C)(=O)=O)CC2)c1=O [Compound 5, 6-((5-fluoroisoindolin-2-yl)methyl)-1-methyl-3-((1-(methylsulfonyl)piperidine-4-yl)methoxy)pyridin-2(1H)-one] | 8.49
3 | Cn1c(CN2Cc3ccccc3C2)ccc(OCC2CCN(S(=O)(=O)C3COC3)CC2)c1=O [Compound 6] | 1.94
4 | CN(C)S(=O)(=O)N1CCC(COc2ccc(CN3Cc4ccc(F)cc4C3)n(C)c2=O)CC1 [Compound 11, 4-(((6-((5-fluoroisoindolin-2-yl)methyl)-1-methyl-2-oxo-1,2-dihydropyridin-3-yl)oxy)methyl)-N,N-dimethylpiperidine-1-sulfonamide] | 1.98
5 | Cn1c(CN2Cc3ccc(C(F)(F)F)cc3C2)ccc(OCC2CCN(S(C)(=O)=O)CC2)c1=O [Compound 13, 1-methyl-3-((1-(methylsulfonyl)piperidine-4-yl)methoxy)-6-((5-(trifluoromethyl)isoindolin-2-yl)methyl)pyridin-2(1H)-one] | 12
6 | [2H]C([2H])([2H])n1c(CN2Cc3ccc(C(F)(F)F)cc3C2)ccc(OCC2CCN(S(C)(=O)=O)CC2)c1=O [Compound 14, 1-(methyl-d3)-3-((1-(methylsulfonyl)piperidine-4-yl)methoxy)-6-((5-(trifluoromethyl)isoindolin-2-yl)methyl)pyridin-2(1H)-one] | 4.75
7 | [2H]C([2H])([2H])n1c(CN2Cc3ccc(F)cc3C2)ccc(OCC2CCN(S(=O)(=O)C3COC3)CC2)c1=O [Compound 15, 6-((5-fluoroisoindolin-2-yl)methyl)-1-(methyl-d3)-3-((1-(oxetan-3-ylsulfonyl)piperidine-4-yl)methoxy)pyridin-2(1H)-one] | 3.99
8 | [2H]C([2H])([2H])n1c(CN2Cc3ccc(C(F)(F)F)cc3C2)ccc(OCC2CCN(S(=O)(=O)C3CC3)CC2)c1=O [Compound 19, 3-((1-(cyclopropylsulfonyl)piperidine-4-yl)methoxy)-1-(methyl-d3)-6-((5-(trifluoromethyl)isoindolin-2-yl)methyl)pyridin-2(1H)-one] | 7.8
9 | CN(C)S(=O)(=O)N1CCC(COc2ccc(CN3Cc4ccc(C(F)(F)F)cc4C3)n(C)c2=O)CC1 [Compound 22, N,N-dimethyl-4-(((1-methyl-2-oxo-6-((5-(trifluoromethyl)isoindolin-2-yl)methyl)-1,2-dihydropyridin-3-yl)oxy)methyl)piperidine-1-sulfonamide] | 8.61
10 | Cn1c(CN2Cc3ccc(C(F)(F)F)cc3C2)ccc(OCC2CCN(S(=O)(=O)C3COC3)CC2)c1=O [Compound 23, 1-methyl-3-((1-(oxetan-3-ylsulfonyl)piperidine-4-yl)methoxy)-6-((5-(trifluoromethyl)isoindolin-2-yl)methyl)pyridin-2(1H)-one] | 3.57
11 | [2H]C([2H])([2H])n1c(CN2Cc3ccc(F)cc3C2)ccc(OCC2CCN(S(C)(=O)=O)CC2)c1=O [Compound 24, 6-((5-fluoroisoindolin-2-yl)methyl)-1-(methyl-d3)-3-((1-(methylsulfonyl)piperidine-4-yl)methoxy)pyridin-2(1H)-one] | 4.86
12 | CCn1c(CN2Cc3ccccc3C2)ccc(OCC2CCN(S(=O)(=O)C(F)(F)F)CC2)c1=O [Compound 27, 1-ethyl-6-(isoindolin-2-ylmethyl)-3-((1-((trifluoromethyl)sulfonyl)piperidine-4-yl)methoxy)pyridin-2(1H)-one] | 0.136
13 | CCn1c(CN2Cc3ccccc3C2)ccc(OCC2CCN(S(=O)(=O)NC)CC2)c1=O [Compound 29, 4-(((1-ethyl-6-(isoindolin-2-ylmethyl)-2-oxo-1,2-dihydropyridin-3-yl)oxy)methyl)-N-methylpiperidine-1-sulfonamide] | 14.8

The next lines start with the values.

Row | IC50 [nM] | SMILES
14 | 2.25 | Cn1c(CN2Cc3ccccc3C2)ccc(OCC2CCN(S(=O)(=O)C3CC3)CC2)c1=O [Compound 3, 3-((1-(cyclopropylsulfonyl)piperidine-4-yl)methoxy)-6-(isoindolin-2-ylmethyl)-1-methylpyridin-2(1H)-one]
15 | 1.74 | CN(C)S(=O)(=O)N1CCC(COc2ccc(CN3Cc4ccccc4C3)n(C)c2=O)CC1 [Compound 4, 4-(((6-(isoindolin-2-ylmethyl)-1-methyl-2-oxo-1,2-dihydropyridin-3-yl)oxy)methyl)-N,N-dimethylpiperidine-1-sulfonamide]
16 | 9.34 | CC(=O)N1CCC(COc2ccc(CN3Cc4ccccc4C3)n(C)c2=O)CC1 [Compound 7, 3-((1-acetylpiperidine-4-yl)methoxy)-6-(isoindolin-2-ylmethyl)-1-methylpyridin-2(1H)-one]
17 | 3.57 | Cn1c(CN2Cc3ccc(F)cc3C2)ccc(OCC2CCN(S(=O)(=O)C3COC3)CC2)c1=O [Compound 12, 6-((5-fluoroisoindolin-2-yl)methyl)-1-methyl-3-((1-(oxetan-3-ylsulfonyl)piperidine-4-yl)methoxy)pyridin-2(1H)-one]
18 | 3.76 | [2H]C([2H])([2H])n1c(CN2Cc3ccccc3C2)ccc(OCC2CCN(S(C)(=O)=O)CC2)c1=O [Compound 17, 6-(isoindolin-2-ylmethyl)-1-(methyl-d3)-3-((1-(methylsulfonyl)piperidine-4-yl)methoxy)pyridin-2(1H)-one]
19 | 1.94 | [2H]C([2H])([2H])n1c(CN2Cc3ccc(F)cc3C2)ccc(OCC2CCN(S(=O)(=O)C3CC3)CC2)c1=O [Compound 20]
20 | 2.21 | Cn1c(CN2Cc3ccc(C(F)(F)F)cc3C2)ccc(OCC2CCN(S(=O)(=O)C3CC3)CC2)c1=O [Compound 21, 3-((1-(cyclopropylsulfonyl)piperidine-4-methyl)methoxy)-1-methyl-6-((5-(trifluoromethyl)isoindolin-2-yl)methyl)pyridin-2(1H)-one]
